# Assay results reported in ChEMBL document CHEMBL1201862, “PubChem BioAssay data set” (2004).
#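 Cultured in 96-well plates, cells were exposed to test compound for 48 hours across five concentrations. GI50: concentration for 50% inhibition of growth.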 Active and inactive are the calls of the source. Cut-off read from the data, not from the text of the source: active = GI50 up to about 1.1 µM and inactive = higher.
# Tests used:
# Test in all cases: NCI anticancer screen, dose series, 48 h
# 786-0 = tested on: 786-0
# A498 = tested on: A498
# A549 = tested on: A549
# ACHN = tested on: ACHN
# BT-549 = tested on: BT-549
# CAKI-1 = tested on: CAKI-1
# CCRF-CEM = tested on: CCRF-CEM
# COLO 205 = tested on: COLO 205
# DU-145 = tested on: DU-145
# EKVX = tested on: EKVX
# HCC 2998 = tested on: HCC 2998
# HCT-116 = tested on: HCT-116
# HCT-15 = tested on: HCT-15
# HL-60 = tested on: HL-60
# HOP-62 = tested on: HOP-62
# HOP-92 = tested on: HOP-92
# HT-29 = tested on: HT-29
# Hs-578T = tested on: Hs-578T
# IGROV-1 = tested on: IGROV-1
# K562 = tested on: K562
# KM12 = tested on: KM12
# LOX IMVI = tested on: LOX IMVI
# M14 = tested on: M14
# MCF7 = tested on: MCF7
# MDA-MB-231 = tested on: MDA-MB-231
# MDA-MB-435 = tested on: MDA-MB-435
# MDA-N = tested on: MDA-N
# MOLT-4 = tested on: MOLT-4
# Malme-3M = tested on: Malme-3M
# NCI-H226 = tested on: NCI-H226
# NCI-H23 = tested on: NCI-H23
# NCI-H460 = tested on: NCI-H460
# NCI-H522 = tested on: NCI-H522
# NCI/ADR-RES = tested on: NCI/ADR-RES
# OVCAR-3 = tested on: OVCAR-3
# OVCAR-4 = tested on: OVCAR-4
# OVCAR-5 = tested on: OVCAR-5
# OVCAR-8 = tested on: OVCAR-8
# PC-3 = tested on: PC-3
# RPMI-8226 = tested on: RPMI-8226
# RXF 393 = tested on: RXF 393
# SF-268 = tested on: SF-268
# SF-295 = tested on: SF-295
# SF-539 = tested on: SF-539
# SK-MEL-28 = tested on: SK-MEL-28
# SK-MEL-2 = tested on: SK-MEL-2
# SK-MEL-5 = tested on: SK-MEL-5
# SK-OV-3 = tested on: SK-OV-3
# SN12C = tested on: SN12C
# SNB-19 = tested on: SNB-19
# SNB-75 = tested on: SNB-75
# SR = tested on: SR
# SW-620 = tested on: SW-620
# T47D = tested on: T47D
# TK-10 = tested on: TK-10
# U-251 = tested on: U-251
# UACC-257 = tested on: UACC-257
# UACC-62 = tested on: UACC-62
# UO-31 = tested on: UO-31
structure (smiles),measurement,setting,value
COC(=O)[C@H](C)NC(=O)C1(CNC(=O)[C@H](C)NC(=O)OC(C)(C)C)Cc2ccccc2-c2ccccc2C1,GI50,786-0,19.6 µM (inactive)
same,GI50,A498,35.7 µM (inactive)
same,GI50,A549,19.4 µM (inactive)
same,GI50,ACHN,22.8 µM (inactive)
same,GI50,BT-549,> 43.6 µM (inactive)
same,GI50,CAKI-1,12.2 µM (inactive)
same,GI50,CCRF-CEM,18.7 µM (inactive)
same,GI50,COLO 205,22.3 µM (inactive)
same,GI50,DU-145,14.9 µM (inactive)
same,GI50,EKVX,19.3 µM (inactive)
same,GI50,HCC 2998,24.9 µM (inactive)
same,GI50,HCT-116,33.8 µM (inactive)
same,GI50,HCT-15,15.7 µM
same,GI50,HL-60,19.5 µM (inactive)
same,GI50,HOP-62,27 µM (inactive)
same,GI50,HOP-92,5.51 µM (inactive)
same,GI50,HT-29,17.4 µM (inactive)
same,GI50,Hs-578T,> 37.2 µM (inactive)
same,GI50,IGROV-1,16.3 µM (inactive)
same,GI50,K562,24.7 µM (inactive)
same,GI50,KM12,16.1 µM (inactive)
same,GI50,LOX IMVI,3.85 µM (inactive)
same,GI50,M14,> 45.9 µM (inactive)
same,GI50,MCF7,37.5 µM (inactive)
same,GI50,MDA-MB-231,17.9 µM (inactive)
same,GI50,MDA-MB-435,20 µM (inactive)
same,GI50,MDA-N,26.1 µM (inactive)
same,GI50,MOLT-4,16.7 µM (inactive)
same,GI50,Malme-3M,19.1 µM (inactive)
same,GI50,NCI-H226,24.5 µM (inactive)
same,GI50,NCI-H23,18 µM (inactive)
same,GI50,NCI-H460,19.7 µM (inactive)
same,GI50,NCI-H522,7.52 µM (inactive)
same,GI50,NCI/ADR-RES,17.5 µM (inactive)
same,GI50,OVCAR-3,17.5 µM (inactive)
same,GI50,OVCAR-4,21 µM (inactive)
same,GI50,OVCAR-5,19.9 µM (inactive)
same,GI50,OVCAR-8,6.78 µM (inactive)
same,GI50,PC-3,23.8 µM (inactive)
same,GI50,RPMI-8226,7.59 µM (inactive)
same,GI50,RXF 393,25.5 µM (inactive)
same,GI50,SF-268,19.6 µM (inactive)
same,GI50,SF-295,21.4 µM (inactive)
same,GI50,SF-539,27 µM (inactive)
same,GI50,SK-MEL-28,> 47.3 µM (inactive)
same,GI50,SK-MEL-2,40 µM (inactive)
same,GI50,SK-MEL-5,23.3 µM (inactive)
same,GI50,SK-OV-3,30.5 µM (inactive)
same,GI50,SN12C,17.7 µM (inactive)
same,GI50,SNB-19,> 56.9 µM (inactive)
same,GI50,SNB-75,23.4 µM (inactive)
same,GI50,SR,20 µM (inactive)
same,GI50,SW-620,26.2 µM (inactive)
same,GI50,T47D,21.8 µM (inactive)
same,GI50,TK-10,27 µM (inactive)
same,GI50,U-251,17.9 µM (inactive)
same,GI50,UACC-257,> 48.2 µM (inactive)
same,GI50,UACC-62,16.7 µM (inactive)
same,GI50,UO-31,4.67 µM (inactive)
